Assay results from ChEMBL document CHEMBL3046216, “Synthesis, biological evaluation and QSAR study of a series of substituted quinazolines as antimicrobial agents” (2013).
Values after ≈ are worked out from the molar mass of the structure shown. Active and inactive are the calls of the source. The rule behind the calls is not given here.

Assays:
Format in all cases: functional
Bacillus subtilis = assay: Antimicrobial activity against Bacillus subtilis ATCC 6633 assessed as growth inhibition after 24 hr by NCCLS broth dilution method
Escherichia coli = assay: Antimicrobial activity against Escherichia coli ATCC 25922 assessed as growth inhibition after 24 hr by NCCLS broth dilution method
Staphylococcus aureus = assay: Antimicrobial activity against Staphylococcus aureus ATCC 25923 assessed as growth inhibition after 24 hr by NCCLS broth dilution method
Pseudomonas aeruginosa = assay: Antimicrobial activity against Pseudomonas aeruginosa ATCC 27853 assessed as growth inhibition after 24 hr by NCCLS broth dilution method

| Compound | MIC (Bacillus subtilis) | MIC (Bacillus subtilis; ATCC 6633, 24 h) | MIC (Escherichia coli) | MIC (Escherichia coli; ATCC 25922, 24 h) | MIC (Staphylococcus aureus) | MIC (Staphylococcus aureus; ATCC 25923, 24 h) | MIC (Pseudomonas aeruginosa) | MIC (Pseudomonas aeruginosa; ATCC 27853, 24 h) |
| --- | --- | --- | --- | --- | --- | --- | --- | --- |
| CN[C@@H]1[C@H](O[C@H]2[C@H](O[C@H]3[C@H](O)[C@@H](O)[C@H](N=C(N)N)[C@@H](O)[C@@H]3N=C(N)N)O[C@@H](C)[C@]2(O)C=O)O[C@@H](CO)[C@H](O)[C@H]1O [STREPTOMYCIN] | inactive | 6.25 µg/mL (≈ 10.7 µM) | inactive | 3.12 µg/mL (≈ 5.37 µM) | inactive | 6.25 µg/mL (≈ 10.7 µM) | inactive | 3.12 µg/mL (≈ 5.37 µM) |
| S=C(Nc1cccc(Cl)c1)Nc1ccc2ncnc(Sc3nnc(-c4cccnc4)o3)c2c1 | inactive | 25 µg/mL (≈ 50.8 µM) | inactive | 50 µg/mL (≈ 102 µM) | inactive | 6.25 µg/mL (≈ 12.7 µM) | inactive | 75 µg/mL (≈ 152 µM) |
| O=C(Nc1ccc(-c2ccccc2)cc1)Nc1ccc2ncnc(Sc3nnc(-c4cccnc4)o3)c2c1 | inactive | 12.5 µg/mL (≈ 24.2 µM) | inactive | 100 µg/mL (≈ 193 µM) | inactive | 12.5 µg/mL (≈ 24.2 µM) | inactive | 75 µg/mL (≈ 145 µM) |
| CN1CCN(c2cc3ncnc(Sc4nnc(-c5cccnc5)o4)c3cc2NC(=S)Nc2ccc(Cl)cc2)CC1 | inactive | 12.5 µg/mL (≈ 21.2 µM) | inactive | 50 µg/mL (≈ 84.7 µM) | inactive | 25 µg/mL (≈ 42.4 µM) | inactive | 50 µg/mL (≈ 84.7 µM) |
| Cc1cccc(NC(=S)Nc2ccc3ncnc(Sc4nnc(-c5cccnc5)o4)c3c2)c1 | inactive | 75 µg/mL (≈ 159 µM) | inactive | 50 µg/mL (≈ 106 µM) | inactive | 75 µg/mL (≈ 159 µM) | inactive | 100 µg/mL (≈ 212 µM) |
| CN1CCN(c2cc3ncnc(Sc4nnc(-c5cccnc5)o4)c3cc2NC(=S)Nc2ccccc2Cl)CC1 | inactive | 6.25 µg/mL (≈ 10.6 µM) | inactive | 25 µg/mL (≈ 42.4 µM) | inactive | 25 µg/mL (≈ 42.4 µM) | inactive | 12.5 µg/mL (≈ 21.2 µM) |
| CN1CCN(c2cc3ncnc(Sc4nnc(-c5cccnc5)o4)c3cc2NC(=S)Nc2ccccc2)CC1 | inactive | 25 µg/mL (≈ 45 µM) | inactive | 25 µg/mL (≈ 45 µM) | inactive | 50 µg/mL (≈ 90 µM) | inactive | 50 µg/mL (≈ 90 µM) |
| Fc1ccc(NC(=S)Nc2ccc3ncnc(Sc4nnc(-c5cccnc5)o4)c3c2)cc1 | inactive | 6.25 µg/mL (≈ 13.1 µM) | inactive | 12.5 µg/mL (≈ 26.3 µM) | inactive | 6.25 µg/mL (≈ 13.1 µM) | inactive | 50 µg/mL (≈ 105 µM) |
| O=C(Nc1ccccc1)Nc1ccc2ncnc(Sc3nnc(-c4cccnc4)o3)c2c1 | inactive | 25 µg/mL (≈ 56.6 µM) | inactive | 25 µg/mL (≈ 56.6 µM) | inactive | 12.5 µg/mL (≈ 28.3 µM) | inactive | 50 µg/mL (≈ 113 µM) |
| Cc1ccccc1NC(=O)Nc1ccc2ncnc(Sc3nnc(-c4cccnc4)o3)c2c1 | inactive | 50 µg/mL (≈ 110 µM) | inactive | 25 µg/mL (≈ 54.9 µM) | inactive | 25 µg/mL (≈ 54.9 µM) | inactive | 75 µg/mL (≈ 165 µM) |
| CN1CCN(c2cc3ncnc(Sc4nnc(-c5cccnc5)o4)c3cc2NC(=S)Nc2cccc(Cl)c2)CC1 | inactive | 25 µg/mL (≈ 42.4 µM) | inactive | 12.5 µg/mL (≈ 21.2 µM) | inactive | 6.25 µg/mL (≈ 10.6 µM) | inactive | 50 µg/mL (≈ 84.7 µM) |
| CN1CCN(c2cc3ncnc(Sc4nnc(-c5cccnc5)o4)c3cc2NC(=S)NC2CCCCC2)CC1 | inactive | 75 µg/mL (≈ 134 µM) | inactive | 25 µg/mL (≈ 44.5 µM) | inactive | 100 µg/mL (≈ 178 µM) | inactive | 50 µg/mL (≈ 89 µM) |
| COc1ccccc1NC(=S)Nc1ccc2ncnc(Sc3nnc(-c4cccnc4)o3)c2c1 | inactive | 25 µg/mL (≈ 51.3 µM) | inactive | 25 µg/mL (≈ 51.3 µM) | inactive | 12.5 µg/mL (≈ 25.6 µM) | inactive | 50 µg/mL (≈ 103 µM) |
| Cc1cccc(NC(=O)Nc2cc3c(Sc4nnc(-c5cccnc5)o4)ncnc3cc2N2CCN(C)CC2)c1 | inactive | 25 µg/mL (≈ 45.2 µM) | inactive | 25 µg/mL (≈ 45.2 µM) | inactive | 50 µg/mL (≈ 90.3 µM) | inactive | 50 µg/mL (≈ 90.3 µM) |
| CN1CCN(c2cc3ncnc(Sc4nnc(-c5cccnc5)o4)c3cc2NC(=O)Nc2ccccc2Cl)CC1 | inactive | 50 µg/mL (≈ 87.1 µM) | inactive | 50 µg/mL (≈ 87.1 µM) | inactive | 25 µg/mL (≈ 43.5 µM) | inactive | 100 µg/mL (≈ 174 µM) |
| O=C(Nc1ccc2ncnc(Sc3nnc(-c4cccnc4)o3)c2c1)NC1CCCCC1 | inactive | 50 µg/mL (≈ 112 µM) | inactive | 50 µg/mL (≈ 112 µM) | inactive | 25 µg/mL (≈ 55.9 µM) | inactive | 100 µg/mL (≈ 223 µM) |
| CC1COc2c(N3CCN(C)CC3)c(F)cc3c(=O)c(C(=O)O)cn1c23 (centres undefined) [OFLOXACIN] | inactive | 0.125 µg/mL (≈ 0.346 µM) | inactive | 0.125 µg/mL (≈ 0.346 µM) | inactive | 0.25 µg/mL (≈ 0.692 µM) | inactive | 10 µg/mL (≈ 27.7 µM) |
| O=C(NCCc1ccccc1)Nc1ccc2ncnc(Sc3nnc(-c4cccnc4)o3)c2c1 | inactive | 50 µg/mL (≈ 106 µM) | inactive | 50 µg/mL (≈ 106 µM) | inactive | 12.5 µg/mL (≈ 26.6 µM) | inactive | 75 µg/mL (≈ 160 µM) |
| COc1ccccc1NC(=S)Nc1cc2c(Sc3nnc(-c4cccnc4)o3)ncnc2cc1N1CCN(C)CC1 | inactive | 25 µg/mL (≈ 42.7 µM) | inactive | 25 µg/mL (≈ 42.7 µM) | inactive | 12.5 µg/mL (≈ 21.3 µM) | inactive | 50 µg/mL (≈ 85.4 µM) |
| Cc1ccc(NC(=S)Nc2ccc3ncnc(Sc4nnc(-c5cccnc5)o4)c3c2)cc1 | inactive | 25 µg/mL (≈ 53 µM) | inactive | 50 µg/mL (≈ 106 µM) | inactive | 25 µg/mL (≈ 53 µM) | inactive | 75 µg/mL (≈ 159 µM) |
| S=C(Nc1ccc2ncnc(Sc3nnc(-c4cccnc4)o3)c2c1)Nc1ccccc1Cl | inactive | 50 µg/mL (≈ 102 µM) | inactive | 25 µg/mL (≈ 50.8 µM) | inactive | 25 µg/mL (≈ 50.8 µM) | inactive | 50 µg/mL (≈ 102 µM) |
| Cc1ccccc1NC(=O)Nc1cc2c(Sc3nnc(-c4cccnc4)o3)ncnc2cc1N1CCN(C)CC1 | inactive | 100 µg/mL (≈ 181 µM) | inactive | 50 µg/mL (≈ 90.3 µM) | inactive | 12.5 µg/mL (≈ 22.6 µM) | inactive | 100 µg/mL (≈ 181 µM) |
| Cc1ccc(NC(=O)Nc2ccc3ncnc(Sc4nnc(-c5cccnc5)o4)c3c2)cc1 | inactive | 75 µg/mL (≈ 165 µM) | inactive | 50 µg/mL (≈ 110 µM) | inactive | 12.5 µg/mL (≈ 27.4 µM) | inactive | 12.5 µg/mL (≈ 27.4 µM) |
